According to patent US9586936B2, “Heteroarylamine derivatives as protein kinase inhibitors” (KOREA INSTITUTE OF SCIENCE AND TECHNOLOGY, priority 2014, dated 2017):

Columns and labels:
[1] = system: bladder cancer cell line RT112; assay: inhibition of proliferation of cancer cells; format: cell-based; settings: Homo sapiens, RT-112, read-out: Ability of inhibiting proliferation of RT112 (GI50)
Description: The ability of the compound of the present invention of inhibiting the proliferation of the bladder cancer cell line RT112 was determined as the GI50 value.

[2] = microsomal stability; format: in vitro ADME, Mouse; settings: Mouse
Description: (§1) The microsomal stability of N-(2,6-dichloro-3,5-dimethoxyphenyl)-1-(6-((4-(4-ethylpiperazin-1-yl)phenyl)amino)pyrimidin-4-yl)-1H-benz[d]imidazol-2-amine synthesized in Example 1, as a representative compound of the present invention, was evaluated.

[3] = microsomal stability; format: in vitro ADME, Dog; settings: Dog
Description: as §1

[4] = microsomal stability; format: in vitro ADME, Human; settings: Human
Description: as §1

[5] = microsomal stability; format: in vitro ADME, Rat; settings: Rat
Description: as §1

[6] = system: RT112 bladder cancer cell line; settings: literature statement; cited from earlier work
[7] = molecular target: FGFR3 (Homo sapiens, UniProt P22607); settings: literature statement; cited from earlier work
Chain of FGFR3 (P22607 23-806): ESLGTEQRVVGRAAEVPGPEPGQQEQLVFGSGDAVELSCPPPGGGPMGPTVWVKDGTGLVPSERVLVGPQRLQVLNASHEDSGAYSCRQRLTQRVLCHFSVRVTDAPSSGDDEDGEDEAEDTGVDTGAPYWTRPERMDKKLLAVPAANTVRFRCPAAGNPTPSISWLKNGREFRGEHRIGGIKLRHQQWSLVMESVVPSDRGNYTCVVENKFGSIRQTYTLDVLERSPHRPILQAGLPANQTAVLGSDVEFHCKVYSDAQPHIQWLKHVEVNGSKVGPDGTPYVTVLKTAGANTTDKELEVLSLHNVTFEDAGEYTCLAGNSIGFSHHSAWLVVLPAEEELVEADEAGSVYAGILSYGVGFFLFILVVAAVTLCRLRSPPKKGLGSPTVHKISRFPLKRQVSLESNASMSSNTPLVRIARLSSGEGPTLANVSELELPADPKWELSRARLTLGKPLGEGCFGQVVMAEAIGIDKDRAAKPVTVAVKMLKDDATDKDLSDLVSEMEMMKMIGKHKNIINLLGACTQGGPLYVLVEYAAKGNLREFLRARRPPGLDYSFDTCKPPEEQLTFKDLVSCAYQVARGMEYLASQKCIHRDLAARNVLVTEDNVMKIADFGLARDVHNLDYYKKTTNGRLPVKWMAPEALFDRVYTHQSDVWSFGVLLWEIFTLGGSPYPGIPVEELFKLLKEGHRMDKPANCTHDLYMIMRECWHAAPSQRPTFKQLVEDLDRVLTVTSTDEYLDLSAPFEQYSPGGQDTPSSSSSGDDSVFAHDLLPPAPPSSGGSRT

COc1cc(N2CCOCC2)ccc1Nc1cc(-n2c(Nc3c(Cl)c(OC)cc(OC)c3Cl)nc3ccccc32)ncn1 [Example 4, N-(2,6-dichloro-3,5-dimethoxyphenyl)-1-(6-((2-methoxy-4-morpholinophenyl)amino)pyrimidin-4-yl)-1H-benz[d]imidazol-2-amine]
GI50 [1]: < 1000 nM

COc1cc(OC)c(Cl)c(Nc2nc3ccccc3n2-c2cc(Nc3ccc(N4CCC(N5CCCCC5)CC4)c(C(F)(F)F)c3)ncn2)c1Cl [Example 5, 1-(6-((4-([1,4′-bipiperidin]-1′-yl)-3-(trifluoromethyl)phenyl)amino)pyrimidin-4-yl)-N-(2,6-dichloro-3,5-dimethoxyphenyl)-1H-benz[d]imidazol-2-amine]
GI50 [1]: < 10000 nM

COc1cc(OC)c(Cl)c(Nc2nc3ccccc3n2-c2cc(Nc3ccc(N4CCOCC4)cc3)ncn2)c1Cl [Example 3, N-(2,6-dichloro-3,5-dimethoxyphenyl)-1-(6-((4-morpholinophenyl)amino)pyrimidin-4-yl)-1H-benz[d]imidazol-2-amine]
GI50 [1]: < 1000 nM

COc1cc(OC)c(Cl)c(Nc2nc3ccccc3n2-c2cc(Nc3ccccc3)ncn2)c1Cl [Example 10, N-(2,6-dichloro-3,5-dimethoxyphenyl)-1-(6-(phenylamino)pyrimidin-4-yl)-1H-benz[d]imidazol-2-amine]
GI50 [1]: < 1000 nM

Cc1ncc2n1-c1ccc(Cl)cc1C(c1ccccc1F)=NC2 [midazolam, reference compound]
microsomal stability (% at time) ([2]; 0 min): 100.00%
microsomal stability (% at time) ([2]; 5 min): 10.42%
microsomal stability (% at time) ([2]; 10 min): 1.13%
microsomal stability (% at time) ([2]; 15 min): 0.18%
microsomal stability (% at time) ([2]; 30 min): 0.05%
microsomal stability (% at time) ([3]; 0 min): 100.00%
microsomal stability (% at time) ([3]; 5 min): 6.23%
microsomal stability (% at time) ([3]; 10 min): 0.59%
microsomal stability (% at time) ([3]; 15 min): 0.27%
microsomal stability (% at time) ([3]; 30 min): 0.10%
microsomal stability (% at time) ([4]; 0 min): 100.00%
microsomal stability (% at time) ([4]; 5 min): 38.75%
microsomal stability (% at time) ([4]; 10 min): 12.92%
microsomal stability (% at time) ([4]; 15 min): 5.60%
microsomal stability (% at time) ([4]; 30 min): 0.73%
microsomal stability (% at time) ([5]; 0 min): 100.00%
microsomal stability (% at time) ([5]; 5 min): 13.65%
microsomal stability (% at time) ([5]; 10 min): 1.01%
microsomal stability (% at time) ([5]; 15 min): 0.14%
microsomal stability (% at time) ([5]; 30 min): 0.04%

COc1cc(OC)c(Cl)c(Nc2nc3ccccc3n2-c2cc(Nc3ncccn3)ncn2)c1Cl [Example 11, N-(2,6-dichloro-3,5-dimethoxyphenyl)-1-(6-(pyrimidin-2-ylamino)pyrimidin-4-yl)-1H-benz[d]imidazol-2-amine]
GI50 [1]: < 1000 nM

COc1cc(OC)c(Cl)c(Nc2nc3ccccc3n2-c2cc(N)ncn2)c1Cl [Example 8]
GI50 [1]: < 1000 nM

CNc1cc(-n2c(Nc3c(Cl)c(OC)cc(OC)c3Cl)nc3ccccc32)ncn1 [Example 9, N-(2,6-dichloro-3,5-dimethoxyphenyl)-1-(6-(methylamino)pyrimidin-4-yl)-1H-benz[d]imidazol-2-amine]
GI50 [1]: < 1000 nM

COc1cc(N2CCN(C)CC2)ccc1Nc1cc(-n2c(Nc3c(Cl)c(OC)cc(OC)c3Cl)nc3ccccc32)ncn1 [Example 2, N-(2,6-dichloro-3,5-dimethoxyphenyl)-1-(6-((2-methoxy-4-(4-methylpiperazin-1-yl)phenyl)amino)pyrimidin-4-yl)-1H-benz[d]imidazol-2-amine]
GI50 [1]: < 1000 nM

CCN1CCN(c2ccc(Nc3cc(N(C)C(=O)Nc4c(Cl)c(OC)cc(OC)c4Cl)ncn3)cc2)CC1 [NVP-BGJ398, 3-(2,6-dichloro-3,5-dimethoxyphenyl)-1-{6-[4-(4-ethyl-piperazin-1-yl)phenylamino]pyrimidin-4-yl}-1-methylurea]
anticancer activity for the RT112 bladder cancer cell line, in words [6]: effective anticancer activity
inhibition activity against FGFR3, in words [7]: selective inhibition activity

COc1cc(OC)c(Cl)c(Nc2nc3ccccc3n2-c2cc(Nc3ccc(CN4CCN(CC5CCCCC5)CC4)cc3)ncn2)c1Cl [Example 6, 1-(6-((4-((4-(cyclohexylmethyl)piperazin-1-yl)methyl)phenyl)amino)pyrimidin-4-yl)-N-(2,6-dichloro-3,5-dimethoxyphenyl)-1H-benz[d]imidazol-2-amine]
GI50 [1]: < 10000 nM
